Where two headings read alike, the source gives them in different places.
Tested on: SARS-CoV-2-specific CD4+ T cells (OX40+CD137+) in PBMC
Type: cell-based, human
[1] = CD4+ T cell epitopes identified by AIM assay, share of donors responding
[2] = CD4+ T cell epitopes identified by AIM assay, sum of response per responding donor
[3] = CD4+ T cell epitopes identified by AIM assay, total response
[4] = CD4+ T cell epitopes identified by AIM assay, percent of tested donors responding
[5] = CD4+ T cell epitopes identified by AIM assay, total response summed over donors

| Sequence | Frequency of response (%) [1] [%] | Magnitude by # of responding donors [2] | Sum of response [3] | Frequency of response (%) [4] [%] | Sum of response [5] | Frequency of response (%) | Magnitude by # of responding donors | Sum of response |
| --- | --- | --- | --- | --- | --- | --- | --- | --- |
| QDALFAYTKRNVIPT | 6 | 132 | 132 |  |  |  |  |  |
| SFLAHIQWMVMFTPL | 8 | 554 | 554 |  |  |  |  |  |
| NVLFSTVFPPTSFGP | 7 | 109 | 109 |  |  |  |  |  |
| HTTDPSFLGRYMSAL | 18 | 2461 | 4921 |  |  |  |  |  |
| QSINFVRIIMRLWLC [SEQ ID NO 252] |  | 168 |  | 21 | 505 |  |  |  |
| YSRYRIGNYKLNTDH | 15 | 276 | 551 |  |  |  |  |  |
| LIRQGTDYKHWPQIA | 15 | 216 | 431 |  |  |  |  |  |
| NLYDKLVSSFLEMKS | 8 | 150 | 150 |  |  |  |  |  |
| TNILLNVPLHGTILT | 25 | 543 | 1628 |  |  |  |  |  |
| TRRIRGGDGKMKDLS | 8 | 151 | 151 |  |  |  |  |  |
| AVTANVNALLSTDGN | 7 | 201 | 201 |  |  |  |  |  |
| VTLADAGFIKQYGDC | 17 | 119 | 237 |  |  |  |  |  |
| VTKNSKVQIGEYTFE | 8 | 118 | 118 |  |  |  |  |  |
| LNQLTGYKKPASREL | 8 | 168 | 168 |  |  |  |  |  |
| FSNSGSDVLYQPPQT | 8 | 149 | 149 |  |  |  |  |  |
| LPFFSNVTWFHAIHV | 9 | 156 | 156 |  |  |  |  |  |
| AGFIKQYGDCLGDIA | 25 | 817 | 2450 |  |  |  |  |  |
| NHTKKWKYPQVNGLT | 9 | 123 | 123 |  |  |  |  |  |
| LPPLLTDEMIAQYTS | 9 | 153 | 153 |  |  |  |  |  |
| WPQIAQFAPSASAFF | 33 | 376 | 1503 |  |  |  |  |  |
| IATNGPLKVGGSCVL | 8 | 112 | 112 |  |  |  |  |  |
| YRINWITGGIAIAMA | 58 | 345 | 2417 |  |  |  |  |  |
| FKDQVILLNKHIDAY | 33 | 446 | 1785 |  |  |  |  |  |
| FYSKWYIRVGARKSA [SEQ ID NO 255] |  |  |  |  |  | 55 | 468 | 2805 |
| LYLYALVYFLQSINF | 21 | 124 | 371 |  |  |  |  |  |
| GIVNNTVYDPLQPEL | 7 | 164 | 164 |  |  |  |  |  |

| Sequence | Frequency of response (%) [1] [%] | Magnitude by # of responding donors [2] | Sum of response [3] | Frequency of response (%) [4] [%] | Sum of response [5] | Frequency of response (%) | Magnitude by # of responding donors | Sum of response |
| --- | --- | --- | --- | --- | --- | --- | --- | --- |
| SALEPLVDLPIGINI | 9 | 167 | 167 |  |  |  |  |  |
| PRWYFYYLGTGPEAG | 7 | 750 | 750 |  |  |  |  |  |
| FNCYFPLQSYGFQPT | 8 | 130 | 130 |  |  |  |  |  |
| TRFQTLLALHRSYLT |  | 2172 |  | 18 | 4343 |  |  |  |
| IVRFPNITNLCPFGE |  | 107 |  | 9 | 107 |  |  |  |
| GSLVVRCSFYEDFLE | 27 | 231 | 694 |  |  |  |  |  |
| TPPIKDFGGFNFSQI | 8 | 421 | 421 |  |  |  |  |  |
| GGDGKMKDLSPRWYF | 15 | 148 | 295 |  |  |  |  |  |
| RGHLRIAGHHLGRCD | 42 | 472 | 2359 |  |  |  |  |  |
| YYRRATRRIRGGDGK | 23 | 197 | 592 |  |  |  |  |  |
| FTVEKGIYQTSNFRV |  | 1202 |  | 9 | 1202 |  |  |  |
| LLFNKVTLADAGFIK | 8 | 297 | 297 |  |  |  |  |  |
| FHQECSLQSCTQHQP | 18 | 413 | 826 |  |  |  |  |  |
| SASFSTFKCYGVSPT | 8 | 294 | 294 |  |  |  |  |  |
| VSSQCVNLTTRTQLP | 8 | 274 | 274 |  |  |  |  |  |
| GMEVTPSGTWLTYTG | 8 | 380 | 380 |  |  |  |  |  |
| YMSALNHTKKWKYPQ | 9 | 109 | 109 |  |  |  |  |  |
| CVADYSVLYNSASFS | 8 | 210 | 210 |  |  |  |  |  |
| FTINCQEPKLGSLVV |  |  |  |  |  | 27 | 167 | 502 |
| SFNPETNILLNVPLH | 8 | 123 | 123 |  |  |  |  |  |
| ASAFFGMSRIGMEVT | 8 | 337 | 337 |  |  |  |  |  |
| AVMSLKEGQINDMIL | 33 | 104 | 104 |  |  |  |  |  |
| TFKCYGVSPTKLNDL | 8 | 221 | 221 |  |  |  |  |  |
| KTDGTLMIERFVSLA | 7 | 150 | 150 |  |  |  |  |  |
| TTVAAFHQECSLQSC | 18 | 1008 | 2016 |  |  |  |  |  |
| GYKKPASRELKVTFF | 15 | 246 | 491 |  |  |  |  |  |

| Sequence | Frequency of response (%) [1] [%] | Magnitude by # of responding donors [2] | Sum of response [3] | Frequency of response (%) [4] [%] | Sum of response [5] | Frequency of response (%) | Magnitude by # of responding donors | Sum of response |
| --- | --- | --- | --- | --- | --- | --- | --- | --- |
| SNFRVQPTESIVRFP |  | 243 |  | 9 | 243 |  |  |  |
| AVITREVGFVVPGLP | 9 | 682 | 682 |  |  |  |  |  |
| KVTFFPDLNGDVVAI [SEQ ID NO 257] |  | 147 |  | 15 | 293 |  |  |  |
| YREAACCHLAKALND | 8 | 109 | 109 |  |  |  |  |  |
| KHFYWFFSNYLKRRV [SEQ ID NO 244] | 8 | 959 | 959 |  |  |  |  |  |
| KPSKRSFIEDLLFNK |  | 622 |  | 17 | 1243 |  |  |  |
| YVVDDPCPIHFYSKW | 36 | 872 | 3488 |  |  |  |  |  |
| GKGQQQQGQTVTKKS | 7 | 318 | 318 |  |  |  |  |  |
| FGDQELIRQGTDYKH | 8 | 281 | 281 |  |  |  |  |  |
| IRGWIFGTTLDSKTQ | 9 | 327 | 327 |  |  |  |  |  |
| HCANFNVLFSTVFPP | 7 | 211 | 211 |  |  |  |  |  |
| AENSVAYSNNSIAIP | 17 | 403 | 805 |  |  |  |  |  |
| LTQHGKEDLKFPRGQ | 8 | 127 | 127 |  |  |  |  |  |
| SGFAAYSRYRIGNYK |  |  |  |  |  | 31 | 185 | 739 |
| ESDDYIATNGPLKVG | 8 | 133 | 133 |  |  |  |  |  |
| HKNNKSWMESEFRVY | 9 | 572 | 572 |  |  |  |  |  |
| SLLIVNNATNVVIKV |  | 164 |  | 9 | 164 |  |  |  |
| NRNRFLYIIKLIFLW | 13 | 210 | 420 |  |  |  |  |  |
| MFTPLVPFWITIAYI | 8 | 602 | 602 |  |  |  |  |  |
| YFTSDYYQLYSTQLS | 8 | 198 | 198 |  |  |  |  |  |
| IQYIDIGNYTVSCLP | 9 | 1805 | 1805 |  |  |  |  |  |
| QFAYANRNRFLYIIK | 20 | 326 | 978 |  |  |  |  |  |
| VTQNVLYENQKLIAN | 14 | 353 | 705 |  |  |  |  |  |
| DVFHLYLQYIRKLHD | 7 | 247 | 247 |  |  |  |  |  |

Reference: patent US20230293630A1, “Coronavirus T Cell Epitopes and Uses Thereof” (priority 2020, published 2023)
